{"source": "paper PMC7175277", "about": "“Hydroxylamine Analogue of Agmatine: Magic Bullet for Arginine Decarboxylase” (Biomolecules, 2020)", "key": {"E. coli ADC": {"target": "T1, E. coli ADC (Escherichia coli, UniProt P21170)", "T1 construct": "The kinetic parameters determined for the partially purified biosynthetic ADC from E. coli; endogenous in cells; host or cells: E. coli DH5α (39-53% ammonium sulphate fraction of the lysate, desalted)", "T1 sequence (P21170 1-658)": "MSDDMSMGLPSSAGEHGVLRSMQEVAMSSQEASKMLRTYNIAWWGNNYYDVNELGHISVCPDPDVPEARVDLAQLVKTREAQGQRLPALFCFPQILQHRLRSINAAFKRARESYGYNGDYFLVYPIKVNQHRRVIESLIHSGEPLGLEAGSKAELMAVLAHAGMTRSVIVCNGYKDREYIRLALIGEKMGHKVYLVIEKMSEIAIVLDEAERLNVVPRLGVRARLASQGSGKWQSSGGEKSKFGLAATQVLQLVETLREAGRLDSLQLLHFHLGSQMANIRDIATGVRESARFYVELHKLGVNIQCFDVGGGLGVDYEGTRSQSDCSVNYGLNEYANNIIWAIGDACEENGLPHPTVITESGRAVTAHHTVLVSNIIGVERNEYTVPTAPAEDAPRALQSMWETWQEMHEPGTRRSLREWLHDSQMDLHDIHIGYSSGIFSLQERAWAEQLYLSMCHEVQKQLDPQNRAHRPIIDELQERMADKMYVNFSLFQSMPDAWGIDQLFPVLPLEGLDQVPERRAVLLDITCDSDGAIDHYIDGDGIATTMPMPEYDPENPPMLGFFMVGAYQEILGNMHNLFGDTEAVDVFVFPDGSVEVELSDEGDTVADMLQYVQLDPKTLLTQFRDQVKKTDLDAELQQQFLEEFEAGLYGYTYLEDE", "experiment": "E. coli ADC activity assay (HPLC of agmatine)", "assay_type": "biochemical", "conditions": "for inhibition at 0.1 µM: AO-Agm 100 nM; for inhibition at 0.1 µM / inhibition at 0.5 µM: no preincubation; for inhibition at 0.5 µM: AO-Agm 500 nM", "experimental": "The purification was performed using a modified procedure of earlier publication. E. coli strain DH5α was grown in Luria-Bertani broth at +37 °C with shaking (200 rpm) overnight. The cells were collected by centrifugation and the pellet was homogenized with Potter-Elvehjem in 10 volumes (w/v) of ice-cold 50 mM Tris-HCl pH 7.4, 1 mM DTT. The cell debris was removed by centrifugation at 12,000 g for 30 min at +4 °C. Solid (NH4)2SO4 was added to the supernatant, and the pellet precipitating between 39% and 53% saturation was separated. The precipitate was resuspended in ice-cold buffer containing 50 mM Tris-HCl pH 7.4 and 1 mM DTT and desalted by passage through Sephadex G-25 column (NAP-10 column, GE Healthcare). The protein concentration was measured with Bio-Rad protein reagent, and the partially purified enzyme preparation was mixed with 20% glycerol and aliquoted for storage at −80 °C.\n[…] The ODC reaction mixture contained 50 mM Tris-HCl pH 7.8, 1 mM EDTA, 2.4 mM DTT, 0.1 mM PLP and 20 μg of partially purified enzyme preparation. The mixtures were either preincubated or not preincubated for 15 min at +40 °C in the presence of the inhibitor, after which the reaction was started by the addition of 18 μL of 10× substrate (L-Arg for ADC and L-Orn for ODC). After incubation for 30 min (ADC) or 20 min (ODC) at +40 °C, 20 μL of 50% sulphosalicylic acid containing 50 μM diaminoheptane (internal standard) was added and the samples were analyzed for the content of agmatine (ADC) and Put (ODC) with HPLC as described previously. The kinetic parameters and IC50 values were determined with the aid of GraphPad Prism version 5.03 using nonlinear regression analysis."}, "mouse kidney ODC": {"target": "T2, mouse kidney ODC (Mus musculus, UniProt P00860)", "T2 construct": "from tissue; host or cells: C57Bl/6J male mouse kidney, 12,000 g supernatant of the homogenate", "T2 sequence (P00860 1-461)": "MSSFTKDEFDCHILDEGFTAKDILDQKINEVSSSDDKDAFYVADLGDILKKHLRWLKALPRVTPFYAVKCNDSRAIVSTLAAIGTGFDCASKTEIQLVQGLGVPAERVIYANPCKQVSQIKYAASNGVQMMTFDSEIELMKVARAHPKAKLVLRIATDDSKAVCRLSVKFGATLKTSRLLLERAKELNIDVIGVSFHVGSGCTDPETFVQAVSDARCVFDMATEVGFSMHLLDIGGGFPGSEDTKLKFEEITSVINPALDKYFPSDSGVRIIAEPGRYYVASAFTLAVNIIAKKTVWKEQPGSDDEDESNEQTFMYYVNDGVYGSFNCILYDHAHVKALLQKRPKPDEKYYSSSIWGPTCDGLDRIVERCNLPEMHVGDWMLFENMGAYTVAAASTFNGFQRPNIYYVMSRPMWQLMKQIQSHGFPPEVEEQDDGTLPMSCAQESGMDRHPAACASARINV", "experiment": "Assay of mouse kidney ODC activity", "assay_type": "biochemical", "conditions": "0.4 mM L-Orn; 0.4 mM PLP", "experimental": "C57Bl/6J male mouse kidney was homogenized with TissueLyzer (Qiagen) to 2 volumes of buffer containing 50 mM Tris-HCl pH 7.4, 1 mM DTT, 1 mM EDTA, 0.1% Triton X-100 and 1× Complete EDTA-free protease inhibitor cocktail (Roche) and centrifuged at 12,000 g for 30 min at +4 °C. Aliquots of the supernatant were mixed with 1–5000 μM of AO-Agm and the ODC assay was carried out as previously described. The reaction mixture contained 0.4 mM PLP and 0.4 mM L-Orn."}, "[1]": {"system": "DU145 prostate cancer cells", "experiment": "Growth of DU145 cells", "assay_type": "cell-based", "conditions": "for Growth: 3 days", "experimental": "DU145 prostate cancer cells were cultured in high-glucose Dulbecco’s Modified Eagle’s Medium supplemented with 10% heat-inactivated fetal bovine serum, 2 mM L-glutamine and 50 μg/mL gentamycin (all from Sigma-Aldrich). The cells were plated on 6-well plates and allowed to attach overnight. […] The cells were harvested, and the pellet was mixed with 150 μL of 5% sulphosalicylic acid containing 5 μM diaminoheptane (internal standard). Polyamine analysis was carried out as described previously."}, "[2]": {"conditions": "0.1 mM PLP, 15 min preincubation, 0.15 mM L-Arg"}}, "data": [{"compound": "N=C(N)NCCCON", "note": "[AO-Agm, 1-aminooxy-3-guanidinopropane]", "values": [{"measurement": "IC50", "setting": "E. coli ADC; 0.01 mM PLP, 15 min preincubation, 0.15 mM L-Arg", "result": "0.026 ± 0.001", "unit": "µM"}, {"measurement": "Effect of omitting the preincubation time on the efficiency of ADC inhibition", "setting": "E. coli ADC; 0.1 mM PLP, 0.15 mM L-Arg", "result": "did not significantly alter"}, {"measurement": "IC50", "setting": "E. coli ADC; [2]", "result": "0.03 ± 0.001", "unit": "µM"}, {"measurement": "Potency as ADC inhibitor relative to DFMA (more potent)", "setting": "E. coli ADC; [2]", "result": 330, "unit": "times"}, {"measurement": "IC50", "setting": "E. coli ADC; 1 mM PLP, 15 min preincubation, 0.15 mM L-Arg", "result": "0.089 ± 0.001", "unit": "µM"}, {"measurement": "inhibition at 0.1 µM", "setting": "E. coli ADC; 0.15 mM L-Arg, 0.1 mM PLP", "result": 25, "unit": "%"}, {"measurement": "inhibition at 0.1 µM", "setting": "E. coli ADC; 1.5 mM L-Arg, 0.1 mM PLP", "result": "~5", "unit": "%"}, {"measurement": "inhibition at 0.5 µM", "setting": "E. coli ADC; 0.15 mM L-Arg, 0.1 mM PLP", "result": 95, "unit": "%"}, {"measurement": "inhibition at 0.5 µM", "setting": "E. coli ADC; 1.5 mM L-Arg, 0.1 mM PLP", "result": 60, "unit": "%"}, {"measurement": "IC50", "setting": "mouse kidney ODC", "result": "5.3 ± 0.7", "unit": "µM"}, {"measurement": "Growth", "setting": "[1]; AO-Agm 10 μM in the presence of SC (1 mM)", "result": "0.94 ± 0.03", "unit": "Fold"}, {"measurement": "Growth", "setting": "[1]; AO-Agm 10 μM, no SC", "result": "0.96 ± 0.02", "unit": "Fold"}, {"measurement": "Proliferation and intracellular polyamine pools of DU145 cells", "setting": "[1]; AO-Agm 0.01 mM and 0.1 mM", "result": "without effect"}, {"measurement": "Growth", "setting": "[1]; AO-Agm 100 μM in the presence of SC (1 mM)", "result": "0.97 ± 0.02", "unit": "Fold"}, {"measurement": "Growth", "setting": "[1]; AO-Agm 100 μM, no SC", "result": "0.96 ± 0.04", "unit": "Fold"}, {"measurement": "Proliferation of DU145 cells", "setting": "[1]; AO-Agm 1 mM", "result": "moderately inhibited"}, {"measurement": "Growth", "setting": "[1]; AO-Agm 1 mM in the presence of SC (1 mM)", "result": "0.45 ± 0.01", "unit": "Fold"}, {"measurement": "Growth", "setting": "[1]; AO-Agm 1 mM, no SC", "result": "0.72 ± 0.04", "unit": "Fold"}]}]}
